Data as given in patent US8524766B2, “Modulators of dopamine neurotransmission” (NSAB, Filial af Neurosearch Sweden AB, Sverige, priority 2008, dated 2013).

Experiments:
[1] = tested on: drug-naive rats; test: Locomotor activity in drug-naive rats (in vivo behaviour); design: species or system rat; conditions: recorded for 60 minutes, ± SEM
Text: Photobeam sensors are spaced 2.5 cm apart.

[2] = tested on: DOPAC (3,4-dihydroxyphenylacetic acid) in the rat striatum; test: Increase of DOPAC in the rat striatum after systemic administration (in vivo neurochemistry); conditions: estimated ED50 on increase of DOPAC in rat striatum, systemic administration (s.c.), curve fitting; for ED50: sc
Text: After the behavioural activity sessions, the rats are decapitated and their brains rapidly taken out and put on an ice-cold petri-dish. The limbic forebrain, the striatum, the frontal cortex and the remaining hemispheral parts of each rat are dissected and frozen. Each brain part is subsequently analyzed with respect to its content of monoamines and their metabolites.
The monoamine transmitter substances (NA (noradrenaline), DA (dopamine), 5-HT (serotonin)) as well as their amine (NM (normethanephrine), 3-MT (3-methoxytyramine)) and acid (DOPAC (3,4-dihydroxyphenylacetic acid), 5-HIAA (5-hydroxyindoleacetic acid), HVA (homovanillic acid)) metabolites are quantified in brain tissue homogenates by HPLC separations and electrochemical detection.
The analytical method is based on two chromatographic separations dedicated for amines or acids. Two chromatographic systems share a common auto injector with a 10-port valve and two sample loops for simultaneous injection on the two systems. Both systems are equipped with a reverse phase column (Luna C18(2), dp 3 μm, 50*2 mm i.d., Phenomenex) and electrochemical detection is accomplished at two potentials on glassy carbon electrodes (MF-1000, Bioanalytical Systems, Inc.). The column effluent is passed via a T-connection to the detection cell or to a waste outlet. This is accomplished by two solenoid valves, which block either the waste or detector outlet. By preventing the chromatographic front from reaching the detector, better detection conditions are achieved. The aqueous mobile phase (0.4 ml/min) for the acid system contains citric acid 14 mM, sodium citrate 10 mM, MeOH 15% (v/v) and EDTA 0.1 mM. Detection potentials relative to Ag/AgCl reference are 0.45 and 0.60V. The aqueous ion pairing mobile phase (0.5 ml/min) for the amine system contains citric acid 5 mM, sodium citrate 10 mM, MeOH 9% (v/v), MeCN 10.5% v/v), decane sulfonic acid 0.45 mM, and EDTA 0.1 mM. Detection potentials relative to Ag/AgCl reference are 0.45 and 0.65V.
ED50 values for the increase of DOPAC in striatum are calculated by curve fitting.

`CCNC[C@H]1COc2c(F)cc(S(C)(=O)=O)cc2O1` [Example 19, N-{[(2S)-5-FLUORO-7-(METHYLSULFONYL)-2,3-DIHYDRO-1,4-BENZODIOXIN-2-YL]METHYL}ETHANAMINE] was tested, and the Locomotor activity ([1]; 3.7 μmol/kg) was 6123 ± 710 counts/60 min, the Locomotor activity ([1]; 11 μmol/kg) was 3191 ± 387 counts/60 min and the Locomotor activity ([1]; 33 μmol/kg) was 1936 ± 370 counts/60 min. The ED50 [2] was under 3.7 µmol/kg.
`CCCN(CCC)CC1COc2ccc(S(C)(=O)=O)cc2O1` (stereo not shown) [Example 16, N-{[7-(METHYLSULFONYL)-2,3-DIHYDRO-1,4-BENZODIOXIN-2-YL]METHYL}-N-PROPYLPROPAN-1-AMINE] showed a Locomotor activity ([1]; 3.7 μmol/kg) of 13645 ± 3301 counts/60 min, a Locomotor activity ([1]; 11 μmol/kg) of 11807 ± 2628 counts/60 min and a Locomotor activity ([1]; 33 μmol/kg) of 18642 ± 2454 counts/60 min. For the same compound, the ED50 [2] was 29 µmol/kg.
With `CCCNC[C@@H]1COc2ccc(S(C)(=O)=O)cc2O1` [Example 2, N-{[(2R)-7-(METHYLSULFONYL)-2,3-DIHYDRO-1,4-BENZODIOXIN-2-YL]METHYL}-PROPAN-1-AMINE] the Locomotor activity ([1]; 3.7 μmol/kg) was 10728 ± 1557 counts/60 min, the Locomotor activity ([1]; 11 μmol/kg) was 10346 ± 857 counts/60 min and the Locomotor activity ([1]; 33 μmol/kg) was 11427 ± 1559 counts/60 min. It also gave an ED50 [2] of 47 µmol/kg.
Work on `CCCNC[C@H]1COc2ccc(S(C)(=O)=O)cc2O1` [Example 3, N-{[(2S)-7-(METHYLSULFONYL)-2,3-DIHYDRO-1,4-BENZODIOXIN-2-YL]METHYL}-PROPAN-1-AMINE] yielded a Locomotor activity ([1]; 3.7 μmol/kg) of 10297 ± 860 counts/60 min, a Locomotor activity ([1]; 11 μmol/kg) of 8973 ± 2186 counts/60 min and a Locomotor activity ([1]; 33 μmol/kg) of 6830 ± 128 counts/60 min. For the same compound, the ED50 [2] was 6.1 µmol/kg.
Work on `CS(=O)(=O)c1ccc2c(c1)O[C@@H](CN1CCCCC1)CO2` [Example 7, 1-{[(2S)-7-(METHYLSULFONYL)-2,3-DIHYDRO-1,4-BENZODIOXIN-2-YL]METHYL}PIPERIDINE] yielded a Locomotor activity ([1]; 3.7 μmol/kg) of 7905 ± 656 counts/60 min, a Locomotor activity ([1]; 11 μmol/kg) of 5469 ± 734 counts/60 min and a Locomotor activity ([1]; 33 μmol/kg) of 3334 ± 780 counts/60 min. For the same compound, the ED50 [2] was 12 µmol/kg.
With `CCCNCC1CCc2ccc(S(C)(=O)=O)cc2O1` (stereo not shown) [Example 23, N-{[7-(METHYLSULFONYL)-3,4-DIHYDRO-2H-CHROMEN-2-YL]METHYL}-N—PROPAN-1-AMINE] the Locomotor activity ([1]; 3.7 μmol/kg) was 9551 ± 1284 counts/60 min, the Locomotor activity ([1]; 11 μmol/kg) was 9722 ± 1247 counts/60 min and the Locomotor activity ([1]; 33 μmol/kg) was 7700 ± 1039 counts/60 min. For the same compound, the “ED50 DOPAC*” value [2] was 14 µmol/kg.
`CCCNC[C@H]1COc2c(F)cc(S(C)(=O)=O)cc2O1` [Example 21, N-{[(2S)-5-FLUORO-7-(METHYLSULFONYL)-2,3-DIHYDRO-1,4-BENZODIOXIN-2-YL]METHYL}PROPAN-1-AMINE] was tested, and the Locomotor activity ([1]; 3.7 μmol/kg) was 12080 ± 1292 counts/60 min, the Locomotor activity ([1]; 11 μmol/kg) was 8930 ± 631 counts/60 min and the Locomotor activity ([1]; 33 μmol/kg) was 4430 ± 775 counts/60 min. The ED50 [2] was 6.8 µmol/kg.
